Values quoted from earlier work as cited in US20100310597A1, “ANTI-OFLOXACIN MONOCLONAL ANTIBODY AND IMMUNOASSAY OF OFLOXACIN USING THE SAME” (SEKISUI MEDICAL CO., LTD, priority 2007, published 2010).

Settings: background statement

## C[C@H]1COc2c(N3CCN(C)CC3)c(F)cc3c(=O)c(C(=O)O)cn1c23 [levofloxacin, (−)-(S)-9-fluoro-2,3-dihydro-3-methyl-10-(4-methyl-1-piperazinyl)-7-oxo-7H-pyrido[1,2,3-de][1,4]benzoxazine-6-carboxylic acid]
  Antibiotic activity relative to ofloxacin: approximately twice
